From the OPERA property sets (Mansouri et al. 2018)

Structure (SMILES)	logP
Clc1c(Cl)c(Cl)c2c(oc3ccccc32)c1Cl	6.17
Clc1cc2c(oc3c(Cl)c(Cl)c(Cl)c(Cl)c32)c(Cl)c1Cl	7.92
Clc1ccc2oc3c(Cl)c(Cl)c(Cl)c(Cl)c3c2c1	6.79
Clc1cc2oc3cc(Cl)c(Cl)cc3c2cc1Cl	6.53
Clc1cc2oc3c(Cl)c(Cl)c(Cl)cc3c2cc1Cl	6.92
Clc1cc(Cl)c2c(c1)oc1c(Cl)cc(Cl)cc12	6.37
Clc1cc(Cl)c2oc3cc(Cl)c(Cl)cc3c2c1	6.73
Clc1cc2oc3cc(Cl)c(Cl)c(Cl)c3c2cc1Cl	6.79

Other lines, results leading:

logP	Structure (SMILES)
6.31	Clc1cc(Cl)c2c(oc3c(Cl)cccc32)c1Cl
6.51	Clc1cc(Cl)c2c(oc3ccc(Cl)c(Cl)c32)c1Cl
6.11	Clc1cc2c(oc3c(Cl)cccc32)c(Cl)c1Cl
6.23	Clc1cc2oc3ccc(Cl)c(Cl)c3c2cc1Cl
6.31	Clc1cc2oc3c(Cl)c(Cl)ccc3c2cc1Cl
6.23	Clc1ccc2c(c1)oc1c(Cl)c(Cl)cc(Cl)c12
6.25	Clc1cc(Cl)c2oc3c(Cl)c(Cl)ccc3c2c1
6.34	Clc1cc(Cl)c2c(c1)oc1cc(Cl)cc(Cl)c12
6.59	Clc1cc(Cl)c2oc3c(Cl)ccc(Cl)c3c2c1Cl
6.59	Clc1cc(Cl)c2oc3c(Cl)c(Cl)c(Cl)cc3c2c1
6.24	Clc1cc(Cl)c2oc3c(Cl)c(Cl)cc(Cl)c3c2c1
